Results published in PMC9551036, “A selective and orally bioavailable VHL-recruiting PROTAC achieves SMARCA2 degradation in vivo” (Nature Communications, 2022).
“And” between values parts separate entries of the source, which are not always exact repeats. Equal entries are not always repeated. Where two headings read alike, the source gives them in different places.

Experiments:
[1] = Cell viability assay (CellTiter Glo) in a panel of cell lines; format: cell-based, human; settings: for EC50: Homo sapiens; for viability at 1 µM / viability at 0.316 µM / viability at 1.25 µM / viability at 0.313 µM / viability at 0.1 µM: human; for viability at 1 µM: log10 conc -6 mol/l; for viability at 0.316 µM: log10 conc -6.50031 mol/l; for viability at 1.25 µM: log10 conc -5.90309 mol/l; for viability at 0.313 µM: log10 conc -6.50446 mol/l; for viability at 0.1 µM: log10 conc -7 mol/l
Procedure: 500–2000 cells were seeded in white, clear bottom 96-well plates (Corning or Perkin Elmer) in 180–200 µl medium per well. The next day, compounds were added using a digital dispenser and a T0 sample was measured for reference. Cells were incubated for 144–192 h, and viability (luminescence) was measured using CellTiter Glo or CellTiter Glo 2.0 (Promega) according to manufacturer’s instructions after equilibrating cells and reagents at room temperature and 10–20 min incubation time while shaking.

A549 tumour xenograft = experiment: A549 xenograft tumour growth; format: in vivo, mouse; settings: for Tumor volume: Fig4g, 80 mg/kg, qd, per animal
Procedure: To establish subcutaneous tumours, mice were injected with 5 × 10^6 NCI-H1568 in PBS with 5% FCS or with 1 × 10^7 A549 cells in PBS with 5% FCS. Tumour diameters were measured with a caliper three times a week. The volume of each tumour (in mm^3) was calculated according to the formula [tumour volume = length × diameter^2 × π/6]. To monitor side effects of treatment, mice were inspected daily for abnormalities and body weight was determined daily after the start of treatment. Animals were sacrificed when the tumours reached a size of 1500 mm^3. Mice were randomised into treatment groups when the average tumour size reached ~210–220 mm^3. Group sizes were calculated individually for each tumour model based on tumour growth during model establishment experiments. A power analysis was performed using a sample size calculator (https://www.stat.ubc.ca/~rollin/stats/ssize/n2.html). For both models used in the study, 10 mice per group were used for each experiment. All administrations were dosed with 10 ml/kg (s.c. and oral). Control mice were dosed subcutaneously with 10% HP-β-CD in 50% Ringer solution and orally with 15% HP-β-CD, that means the control mouse treatment was corresponding to the solvent of the compounds. Compound 6 was dosed subcutaneously either in a d1-4 q3d, d6-8 q2d, d11-13 q2d treatment (Treatment 1) or a q3 or 4d treatment (Treatment 2).
For the evaluation of the statistical significance of tumour growth inhibition, a one-tailed nonparametric Mann-Whitney-Wilcoxon U-test was performed, based on the hypothesis that an effect would only be measurable in one direction (i.e. expectation of tumour inhibition but not tumour stimulation). Analysis was performed on the day indicated for each experiment. The p values obtained from the U-test were adjusted using the Bonferroni-Holm correction. By convention, p values ≤0.05 indicate significance of differences.

SMILES: Cc1ncsc1-c1ccc(C(CCC(C)CCN2CCC(c3ccc4c(c3)n(C3CCCC3)c3nc(=O)c5c(Br)cccc5n43)CC2)NC(=O)C2CC(O)CN2C(=O)C(NC(=O)C2(F)CC2)C(C)(C)C)cc1 (stereo not drawn) [ACBI2]
- EC50 ([1]; A549, A549, read-out: LogEC50 (viability) (converted)): 29.3 nM
- EC50 ([1]; A549, A549, values derived from curves in Extended Fig 4b, read-out: EC50 mean): 29.3 nM
- EC50 ([1]; HCC364, HCC-364, read-out: LogEC50 (viability) (converted)): 70.8 nM
- EC50 ([1]; HCC364, HCC-364, values derived from curves in Extended Fig 4b, read-out: EC50 mean): 70.8 nM
- EC50 ([1]; HCC515, HCC-515, read-out: LogEC50 (viability) (converted)): 2.11 nM
- EC50 ([1]; HCC515, HCC-515, values derived from curves in Extended Fig 4b, read-out: EC50 mean): 2.11 nM
- EC50 ([1]; HCC4006, HCC4006, read-out: LogEC50 (viability) (converted)): 191 nM
- EC50 ([1]; HCC4006, HCC4006, values derived from curves in Extended Fig 4b, read-out: EC50 mean): 191 nM
- EC50 ([1]; LXFA 629L, LXFA_629L, read-out: LogEC50 (viability) (converted)): 16.5 nM
- EC50 ([1]; LXFA 629L, LXFA_629L, values derived from curves in Extended Fig 4b, read-out: EC50 mean): 16.5 nM
- EC50 ([1]; LXFA_923L, read-out: LogEC50 (viability) (converted)): 4.36 nM
- EC50 ([1]; LXFA_923L, values derived from curves in Extended Fig 4b, read-out: EC50 mean): 4.35 nM
- EC50 ([1]; LXFL 529L, LXFL_529L, read-out: LogEC50 (viability) (converted)): 0.382 nM
- EC50 ([1]; LXFL 529L, LXFL_529L, values derived from curves in Extended Fig 4b, read-out: EC50 mean): 0.382 nM
- EC50 ([1]; Lu-99, LU99, read-out: LogEC50 (viability) (converted)): 132 nM
- EC50 ([1]; Lu-99, LU99, values derived from curves in Extended Fig 4b, read-out: EC50 mean): 132 nM
- EC50 ([1]; MP38, read-out: LogEC50 (viability) (converted)): 8.75 nM
- EC50 ([1]; MP38, values derived from curves in Extended Fig 4b, read-out: EC50 mean): 8.75 nM
- EC50 ([1]; NCI-H1355, NCI-H1355, read-out: LogEC50 (viability) (converted)): 15.6 nM
- EC50 ([1]; NCI-H1355, NCI-H1355, values derived from curves in Extended Fig 4b, read-out: EC50 mean): 15.6 nM
- EC50 ([1]; OV-90, OV-90, read-out: LogEC50 (viability) (converted)): 67.5 nM
- EC50 ([1]; OV-90, OV-90, values derived from curves in Extended Fig 4b, read-out: EC50 mean): 67.5 nM
- EC50 ([1]; SK-MEL-5, SK-MEL-5, read-out: LogEC50 (viability) (converted)): 2.82 nM
- EC50 ([1]; SK-MEL-5, SK-MEL-5, values derived from curves in Extended Fig 4b, read-out: EC50 mean): 2.82 nM
- viability at 1 µM ([1]; A549 cells, A549): 44%
- viability at 0.316 µM ([1]; A549 cells, A549): 43.1%
- viability at 1.25 µM ([1]; HCC4006 cells, HCC4006): 42.2%
- viability at 0.313 µM ([1]; HCC4006 cells, HCC4006): 53.4%
- viability at 1.25 µM ([1]; HCC-364 cells, HCC-364): 14.6%
- viability at 0.313 µM ([1]; HCC-364 cells, HCC-364): 20.4%
- viability at 1 µM ([1]; HCC-515 cells, HCC-515): 15%
- viability at 0.316 µM ([1]; HCC-515 cells, HCC-515): 22.4%
- viability at 1.25 µM ([1]; KYSE-30 cells, KYSE-30): 91.1%
- viability at 0.313 µM ([1]; KYSE-30 cells, KYSE-30): 92.8%
- viability at 0.313 µM ([1]; LU99 cells, LU99): 30.1%
- viability at 1 µM ([1]; LXFA 629L cells, LXFA_629L): 14.9%
- viability at 0.316 µM ([1]; LXFA 629L cells, LXFA_629L): 24.7%
- viability at 1 µM ([1]; LXFA 923L cells, LXFA_923L): 13.6%
- viability at 0.316 µM ([1]; LXFA 923L cells, LXFA_923L): 21.4%
- viability at 1 µM ([1]; LXFL 529L cells, LXFL_529L): 4.39%
- viability at 0.316 µM ([1]; LXFL 529L cells, LXFL_529L): 6.27%
- viability at 0.1 µM ([1]; LXFL 529L cells, LXFL_529L): 9.52%
- viability at 1 µM ([1]; LXFL 1121L cells, LXFL_1121L): 90.4%
- viability at 0.316 µM ([1]; LXFL 1121L cells, LXFL_1121L): 92.1%
- viability at 0.1 µM ([1]; LXFL 1121L cells, LXFL_1121L): 89.5%
- viability at 1 µM ([1]; MP38 cells, MP38): 1.87%
- viability at 0.316 µM ([1]; MP38 cells, MP38): 0.609%
- viability at 0.1 µM ([1]; MP38 cells, MP38): 1.6%
- viability at 1.25 µM ([1]; NCI-H23 cells, NCI-H23): 75.3%
- viability at 0.313 µM ([1]; NCI-H23 cells, NCI-H23): 76.1%
- viability at 1.25 µM ([1]; OV-90 cells, OV-90): 35.5%
- viability at 0.313 µM ([1]; OV-90 cells, OV-90): 45.5%
- viability at 1.25 µM ([1]; SK-MEL-5 cells, SK-MEL-5): 1.81%
- viability at 0.313 µM ([1]; SK-MEL-5 cells, SK-MEL-5): 2.34%
- viability at 1.25 µM ([1]; TOV-112D cells, TOV-112D): 91.7%
- viability at 0.313 µM ([1]; TOV-112D cells, TOV-112D): 103%
- TGI (A549 tumour xenograft; A549 xenograft, 80 mg/kg p.o. once daily, day 21): 47%
- Tumor volume (A549 tumour xenograft; day 1): 123.81 mm3 and 132.68 mm3 and 160.75 mm3 and 185.14 mm3 and 199.53 mm3 and 221.26 mm3 and 231.03 mm3 and 289.04 mm3 and 318.82 mm3 and 328.35 mm3
- Tumor volume (A549 tumour xenograft; day 4): 227.06 mm3 and 262.12 mm3 and 188.92 mm3 and 409.05 mm3 and 274.16 mm3 and 314.25 mm3 and 306.21 mm3 and 369.92 mm3 and 481.58 mm3 and 366.82 mm3
- Tumor volume (A549 tumour xenograft; day 7): 231.98 mm3 and 243.18 mm3 and 196.23 mm3 and 274.16 mm3 and 253.11 mm3 and 344.34 mm3 and 317.61 mm3 and 448.55 mm3 and 592.88 mm3 and 312.54 mm3
- Tumor volume (A549 tumour xenograft; day 9): 261.94 mm3 and 301.83 mm3 and 219.73 mm3 and 302.82 mm3 and 326.12 mm3 and 416.63 mm3 and 335.28 mm3 and 487.15 mm3 and 592.89 mm3 and 371.89 mm3
- Tumor volume (A549 tumour xenograft; day 11): 258.58 mm3 and 202.63 mm3 and 223.15 mm3 and 242.18 mm3 and 278.14 mm3 and 355.98 mm3 and 334.2 mm3 and 464.77 mm3 and 688.26 mm3 and 480.94 mm3
- Tumor volume (A549 tumour xenograft; day 16): 301.85 mm3 and 268.43 mm3 and 297.84 mm3 and 244.81 mm3 and 221.75 mm3 and 393.39 mm3 and 329.71 mm3 and 573.4 mm3 and 713.65 mm3 and 552.3 mm3
- Tumor volume (A549 tumour xenograft; day 18): 316.56 mm3 and 265.75 mm3 and 265.54 mm3 and 297.93 mm3 and 440.11 mm3 and 297.45 mm3 and 522.76 mm3 and 814.33 mm3 and 590.82 mm3
- Tumor volume (A549 tumour xenograft; day 21): 331.26 mm3 and 257.14 mm3 and 246.03 mm3 and 472.38 mm3 and 341.87 mm3 and 428.61 mm3 and 821.5 mm3 and 487.26 mm3
- Tumor volume (A549 tumour xenograft; day 23): 322.32 mm3 and 225.79 mm3 and 259.68 mm3 and 527.19 mm3 and 270.43 mm3 and 777.27 mm3 and 455.64 mm3
